What was measured:
EGR1 = assay: Western blotting of EGR1 expression; assay type: cell-based, human; settings: BAY-treated tumor cells relative to control
Excerpt: A wide range of enriched biological processes were detected upon genetic loss of DHODH, including myogenic differentiation, apoptosis, DNA damage response and signaling via tumor necrosis factor α (TNFα).
Protein lysates were isolated from approximately 500,000-1,000,000 cells. Pellets were rinsed with PBS and then lysed in RIPA buffer containing HALT™ protease inhibitor cocktail (ThermoFisher). Protein concentrations were quantified using the Bradford Assay (BioRad). Protein size was resolved via SDS-PAGE and then transferred to PVDF for immunoblotting. Rabbit polyclonal anti-DHODH (Cell Signaling Technologies; catalogue #80981), rabbit monoclonal anti-EGR1 (Cell Signaling Technologies; catalogue #4145), rabbit polyclonal anti-phospho-ERK1/2 Thr202/Tyr204 (Cell Signaling Technologies; catalogue #9101), rabbit monoclonal anti-phospho-4E-BP1 Thr37/46 (Cell Signaling Technologies; catalogue #2855) were used at a 1:1000 dilution. Mouse monoclonal anti-GAPDH (Abcam; catalogue #ab8245) was used at a 1:5000 dilution. For development, horse-radish peroxidase-conjugated secondary anti-mouse (BioRad; catalogue #1706516) and anti-rabbit antibodies (BioRad; catalogue #1706515) were used with BioRad Clarity ECL reagents. Quantification was performed by analyzing mean pixel density of each band and then normalizing to GAPDH loading control. […]

HD-MB03 = assay: PrestoBlue cell viability, 72-hour treatment, limiting dilution; assay type: cell-based; settings: Homo sapiens, read-out: BAY2402234 IC50; HD-MB03, G3MB-MYC
Description: (§1) SU_MB002, NSC194, NSC197 and NSC201FT, MBT375 and MED411FHTC were maintained in Neurocult Complete (NCC) media (Stem Cell Technologies; catalogue #05751). D425 and D458 were maintained in Dulbecco's […] (DMEM) containing 10% fetal bovine serum (FBS). HD-MB03 were maintained in NCC containing 10% FBS. All cell lines were conditioned in NCC for a minimum of 48 hours before experimentation. SU_MB002 and HD-MB03 G3MB-MYC PDOX were obtained from collaborators as kind gifts and are frequently passaged in vivo. SU_MB002, a treatment-refractory group 3 MB acquired at autopsy was received from Dr. Yoon-Jae Cho. Dr. Till Milde provided HD-MB03, a treatment-naïve group 3 MBs. ICB1299 group 4 MB cells were obtained as a gift from Silvia Marino's laboratory^62. MBT375 was established in-house from a surgical specimen of group 4 MB, which was engrafted in the cerebellum of mice for serial propagation. Nanostring genotyping was used to confirm group 4 medulloblastoma identity. MED411FHTC PDOX were procured from Dr. Olson's brain tumor research lab. D425 and D458 were obtained from the ATCC. All cell lines were fingerprint verified by short tandem repeat (STR) profiling. NSC194, NSC197 and NSC201FT were derived in-house from donor fetal brain tissues^63.
(§2) For assessment of viability, cells were seeded into 96-well plates at a density of 1,000 cells per well. Viability was measured by adding PrestoBlue™ diluted 1:10 (ThermoFisher Scientific; Catalogue #A13261) followed by a 4-hour incubation. Relative fluorescence intensity was determined via background correction. To assess tumorsphere forming capacity, cells were seeded at a low density (200 cells per well) and incubated for 3-5 days. Tumorspheres were manually counted thereafter.

D458 = assay: as above; assay type: cell-based; settings: Homo sapiens, read-out: BAY2402234 IC50; D458, G3MB-MYC
Description: as §1, §2

MED411-FHTC = assay: as above; assay type: cell-based; settings: Homo sapiens, read-out: BAY2402234 IC50, G3MB-MYC
Description: as §1, §2

D425 = assay: as above; assay type: cell-based; settings: Homo sapiens, read-out: BAY2402234 IC50; D425, G3MB-MYC
Description: as §1, §2

With `CCn1c(CO)nn(-c2cc(O[C@@H](C)C(F)(F)F)c(C(=O)Nc3c(F)cccc3Cl)cc2F)c1=O` [BAY2402234] the EGR1 protein expression (EGR1) was “upregulated at the protein level”, the IC50 (HD-MB03) was 0.243 nM and the IC50 (D458) was 0.26 nM. The IC50 (MED411-FHTC) was 0.626 nM and the IC50 (D425) was 0.494 nM.
